Data on one molecule can be found in patent US6265177A, “Enzyme assay for mutant firefly luciferase” (priority 1997, dated 2001).

Holding throughout (type): biochemical
What all share (conditions): 21° C., 20 mM Tricine pH 7.8, 470 μM D-luciferin, ATP 6.25-800 μM, crude cell extract

Experiment [1] concerns the target T1, Photinus pyralis luciferase, recombinant wild type (r Wild Type), luc gene SEQ ID NO: 1 (Photinus pyralis, UniProt P08659).
T1 construct: made in house; host or cells: E. coli JM109, crude lysed cell extract, plasmid pPW601a
As to the kind of experiment: Luciferase assay of Km for MgATP, recombinant wild type. The method, then:
(§1) CELL CULTURE AND EXTRACTION: E. coli JM109 transformants were grown to an OD600 =1.0. Aliquots of cells expressing mutant luciferases from plasmid pPW601a, were subjected to lysis as described in the Promega technical bulletin and the lysed extracts were then stored on ice prior to assay.
(§2) ASSAY OF Km OF MUTANT LUCIFERASES: luciferase assays were performed at 21° C. using 100 μl of assay buffer (20 mM Tricine pH 7.8 containing 2.0 mM MgSO4, 0.1 mM EDTA, 33 mM dithiotheitol, 470 μM D-luciferin and ATP in the concentration range 6.25-800 μM). Each assay contained 5-10 μl of crude cell extract.
(§3) Such plots kan be used to determine the Km.

For experiment [2], the target named is T2, Photinus pyralis luciferase mutant H245A (His245Ala) (Photinus pyralis, UniProt P08659, H245A).
T2 construct: made in house; host or cells: E. coli JM109, crude lysed cell extract, plasmid pPW601a
Put plainly: Luciferase assay of Km for MgATP, mutant H245A. The method, then:
(§4) SITE DIRECTED MUTAGENESIS: Three mutagenic oligonucleotides were used to create the mutations H245A, N and Q (Ala, Asn, or Gln--see Seq ID Nos. 2, 3 & 4). The equivalent wild-type sequence is shown at Seq ID No. 5. […] The mutagenesis was carried out in accordance with the kit instructions of kit supplied by Clontech laboratories Inc, Palo Alto, Calif. USA.
as §1, §2, §3

The target in experiment [3] is T3, Photinus pyralis luciferase mutant H245N (His245Asn) (Photinus pyralis, UniProt P08659, H245N).
T3 construct: made in house; host or cells: E. coli JM109, crude lysed cell extract, plasmid pPW601a
Put plainly: Luciferase assay of Km for MgATP, mutant H245N. On the procedure:
as §4, §1, §2, §3

Experiment [4] has as its target T4, Photinus pyralis luciferase mutant H245Q (His245Gln), SEQ ID NO: 6 (Photinus pyralis, UniProt P08659, H245Q).
T4 construct: ID No. 6; made in house; host or cells: E. coli JM109, crude lysed cell extract, plasmid pPW601a
Put plainly: Luciferase assay of Km for MgATP, mutant H245Q. The method, then:
as §4
The amino acid sequence of H245Q is shown in Seq. ID No. 6.
as §1, §2, §3

Experiment [5] deals with Photinus pyralis luciferase thermostable mutant A215L (printed A21SL) (Photinus pyralis, UniProt P08659, A215L). Put plainly: Luciferase assay of Km for MgATP, thermostable mutant A215L. On the procedure:
as §1, §2, §3
*A215L is a thermostable mutant in which amino acid 215 is substituted with
lysine (see WO 96/22376 - SECRETARY OF STATE FOR DEFENCE).

T3 sequence (P08659 whole entry H245N): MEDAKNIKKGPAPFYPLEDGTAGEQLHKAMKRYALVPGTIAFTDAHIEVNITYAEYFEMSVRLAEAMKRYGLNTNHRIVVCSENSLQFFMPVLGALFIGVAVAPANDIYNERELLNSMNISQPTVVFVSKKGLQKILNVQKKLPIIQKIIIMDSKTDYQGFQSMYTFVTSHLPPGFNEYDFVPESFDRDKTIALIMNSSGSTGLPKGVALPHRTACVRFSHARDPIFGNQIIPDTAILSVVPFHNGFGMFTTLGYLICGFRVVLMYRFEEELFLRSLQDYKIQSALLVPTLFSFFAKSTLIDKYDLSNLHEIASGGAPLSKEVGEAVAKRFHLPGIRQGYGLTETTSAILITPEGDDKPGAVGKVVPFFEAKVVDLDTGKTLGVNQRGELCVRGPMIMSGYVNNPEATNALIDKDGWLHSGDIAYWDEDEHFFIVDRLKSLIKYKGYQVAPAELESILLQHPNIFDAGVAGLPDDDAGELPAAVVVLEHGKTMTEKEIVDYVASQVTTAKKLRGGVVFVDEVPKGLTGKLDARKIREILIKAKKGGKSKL
Chain of Photinus pyralis luciferase thermostable mutant A215L (printed A21SL) (P08659 whole entry A215L): as the sequence (P08659 whole entry H245N) above, with A215L, N245H counted along it
T2 sequence (P08659 whole entry H245A): as the sequence (P08659 whole entry H245N) above, with N245A counted along it
T4 sequence (P08659 whole entry H245Q): as the sequence (P08659 whole entry H245N) above, with N245Q counted along it
T1 sequence (P08659 whole entry): as the sequence (P08659 whole entry H245N) above, with N245H counted along it

Turning to `Nc1ncnc2c1ncn2[C@@H]1O[C@H](COP(=O)(O)OP(=O)(O)OP(=O)(O)O)[C@@H](O)[C@H]1O` [MgATP], the Km (usually the concentration of substrate that gives half-maximal velocity) in experiment [1] amounted to 66 µM; in experiment [2], 442 µM; in experiment [3] it was 623 µM; in experiment [4] it was 1340 µM; in experiment [5], 65 µM.
